Experimental data reported in patent publication US10745410B2, “Substituted [5,6]cyclic-4(3H)-pyrimidinones as anticancer agents” (ZENJI RESEARCH LABORATORIES, priority 2017, dated 2020).
Where a name gives a salt, the structure may show the parent alone.

Tests used:
[1] = target: CDC7/DBF4 (Homo sapiens (Human), UniProt O00311); test: CDC7 biochemical assay (ADP-Glo, MCM2 substrate); conditions: ATP 500 uM; MCM2 400 ug/ml; CDC7/DBF4 200 nM; 180 mins at 27° C.; read-out: CDC7 enzyme IC50 (nm)
Protocol: Biochemical Assay Method N-terminal GST-tagged CDC7 and DBF4 full-length proteins were co-expressed by baculovirus insect expression (BV) system and purified by GST affinity column. Used MCM2 protein as substrate, N-terminal His tag MCM2 was expressed by E. coli and purified by His affinity column. Biochemical assay was tested in the U-shaped bottom 384 plate (corning, #4514) with a final volume of […] at 27° C. The concentration of CDC7 was optimized by the enzyme titration experiment. CDC7 kinase was diluted in assay buffer (40 mM Tris.HCl pH 7.25, 100 ug/mL BSA, and 20 mM MgCl2) to get 2.4× enzyme solutions. Compounds were dissolved in 10 mM DMSO, and series diluted in DMSO from 0.3 mM to 0.3 nM (5 concentration pts); All dilutions were diluted 30× in assay buffer to get 6× compounds solutions. MCM2 Substrate and ATP were diluted to 2.4× mixed solution. Add 2 ul test compound solution to 384 assay plate, then add 5 ul substrate/ATP mixed solution, at last add 5 ul enzyme solution, incubate at 27° C. for 180 mins. Transfer 5 ul reaction solution to another 384 assay plate, then add 5 ul ADP-Glo™ Reagent (Promega) to each well and incubate at 27° C. for 40 mins; Add 10 ul Kinase Detection Reagent (Promega) to each well and incubate at 27° C. for 30 mins. 10 uM CDC7-3 compound was used as 100% inhibition while 100% DMSO control was used as 0% inhibition. Each test has three replications at least. The final concentration of the reagents: ATP was 500 uM; MCM2 was 400 ug/ml; CDC7/DBF4 was 200 nM. The data were obtained by TECAN F200 and calculated by GraphPad Prism 5.0; IC50 values were adjusted by Dose-response-Inhibition-Variable slope model.

[2] = test system: COLO 205 cell line; test: Proliferation experiment in COLO 205 cell line (CellTiter-Glo); type: cell-based; conditions: Homo sapiens, COLO 205 cells, 72 hours
Protocol: Proliferation experiment in COLO 205 cell line Tissue Culture. Cells were maintained in 10% FBS (Gibco #10099141)/RPMI 1640 (Gibco # A10491). The cells were harvested with 0.25% Trypsin/EDTA (Amresco #9002077), re-suspended in 10% FBS/RPMI 1640 and plated at 8,000 cells per well in 90 ul of media in a 96-well black plate with clear bottoms (Corning #3603). The cells were allowed to incubate overnight in a 37° C., 5% CO2 humidified tissue culture incubator. A 10-point test compound curve was prepared by serial diluting a 10 mM stock 1:3 in DMSO in a 384-well compound plate (costar #3656). The serial diluted compounds were transferred to the plate containing medium for further dilution. The final concentration was from 10 uM to 0.000508 uM. The serial diluted compounds were transferred to the plate containing cells by using a volley ([…]) and the cells were placed back in the incubator for 72 hours. Luminescent detection was carried out with CellTiter-Glo® Luminescent Cell Viability Assay (promega # G7572). Signal was read on TECAN Infinite F200.

Chain of CDC7/DBF4 (O00311 whole entry): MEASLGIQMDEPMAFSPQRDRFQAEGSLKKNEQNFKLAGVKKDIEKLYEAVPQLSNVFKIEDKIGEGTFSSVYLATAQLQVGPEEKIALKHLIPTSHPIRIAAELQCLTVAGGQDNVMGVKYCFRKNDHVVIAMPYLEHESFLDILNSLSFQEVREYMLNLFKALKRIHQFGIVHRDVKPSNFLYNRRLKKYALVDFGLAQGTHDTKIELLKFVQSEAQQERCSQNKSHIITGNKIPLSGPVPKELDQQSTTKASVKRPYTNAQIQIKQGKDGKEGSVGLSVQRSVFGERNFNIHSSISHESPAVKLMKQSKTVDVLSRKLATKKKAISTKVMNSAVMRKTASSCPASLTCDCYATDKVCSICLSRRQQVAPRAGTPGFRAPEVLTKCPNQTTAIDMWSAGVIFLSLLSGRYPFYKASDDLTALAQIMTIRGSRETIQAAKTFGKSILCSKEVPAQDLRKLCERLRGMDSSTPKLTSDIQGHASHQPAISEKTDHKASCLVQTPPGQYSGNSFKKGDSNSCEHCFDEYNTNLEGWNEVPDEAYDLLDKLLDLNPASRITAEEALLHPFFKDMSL
Chain of CDC7/DBF4 (Q9UBU7 whole entry partner): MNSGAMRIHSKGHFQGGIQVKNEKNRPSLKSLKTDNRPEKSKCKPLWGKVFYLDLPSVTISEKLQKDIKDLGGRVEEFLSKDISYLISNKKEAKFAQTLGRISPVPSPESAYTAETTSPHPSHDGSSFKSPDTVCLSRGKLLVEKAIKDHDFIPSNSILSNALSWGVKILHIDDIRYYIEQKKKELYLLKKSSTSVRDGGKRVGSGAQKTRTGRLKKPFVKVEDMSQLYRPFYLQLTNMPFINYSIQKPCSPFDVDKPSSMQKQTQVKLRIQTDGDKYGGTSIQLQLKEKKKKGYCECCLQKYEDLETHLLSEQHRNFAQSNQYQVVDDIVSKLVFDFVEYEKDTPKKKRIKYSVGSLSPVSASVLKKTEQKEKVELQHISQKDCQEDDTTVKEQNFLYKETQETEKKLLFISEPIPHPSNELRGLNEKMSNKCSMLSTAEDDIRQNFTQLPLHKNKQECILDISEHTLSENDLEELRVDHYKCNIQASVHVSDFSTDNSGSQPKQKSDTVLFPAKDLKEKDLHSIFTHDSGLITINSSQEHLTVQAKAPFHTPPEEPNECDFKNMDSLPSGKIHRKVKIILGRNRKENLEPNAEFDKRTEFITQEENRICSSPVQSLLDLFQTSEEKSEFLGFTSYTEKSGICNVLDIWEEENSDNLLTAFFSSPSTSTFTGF

| IC50 [1] [nM] | GI50 [2] [nM] | Structure (SMILES) |
| --- | --- | --- |
| 1000 to 10000 | > 10000 | CC(C)[C@H](N)c1nc2cc(-c3cc[nH]n3)sc2c(=O)[nH]1 [Compound 7c, (S)-2-(1-amino-2-methylpropyl)-6-(1H-pyrazol-3-yl)thieno[3,2-d]pyrimidin-4(3H)-one hydrochloride] |
| – | 1000 to 10000 | CC(C)[C@H](N)c1nc2cc(-c3ccnc(Cl)c3)sc2c(=O)[nH]1 [Compound 7a, (S)-2-(1-amino-2-methylpropyl)-6-(2-chloropyridin-4-yl)thieno[3,2-d]pyrimidin-4(3H)-one hydrochloride] |
| – | 100 to 1000 | CC[C@H](N)c1nc2cc(-c3ccnc(F)c3)sc2c(=O)[nH]1 [Compound 13a, (S)-2-(1-aminopropyl)-6-(2-fluoropyridin-4-yl)thieno[3,2-d]pyrimidin-4(3H)-one hydrochloride] |
| 100 to 1000 | 100 to 1000 | CC(C)[C@H](N)c1nc2cc(-c3cc(F)ncc3F)sc2c(=O)[nH]1 [Compound 7d, (S)-2-(1-amino-2-methylpropyl)-6-(2,5-difluoropyridin-4-yl)thieno[3,2-d]pyrimidin-4(3H)-one hydrochloride] |
| > 10000 | > 10000 | CC(C)[C@H](N)c1nc2cc(-c3cnoc3)sc2c(=O)[nH]1 [Compound 7e, (S)-2-(1-amino-2-methylpropyl)-6-(isoxazol-4-yl)thieno[3,2-d]pyrimidin-4(3H)-one hydrochloride] |
| – | 1000 to 10000 | Cc1cc(-c2cc3nc([C@@H](N)C(C)C)[nH]c(=O)c3s2)ccn1 [Compound 7b, (S)-2-(1-amino-2-methylpropyl)-6-(2-methylpyridin-4-yl)thieno[3,2-d]pyrimidin-4(3H)-one hydrochloride] |
| < 100 | < 100 | CC[C@H](N)c1nc2cc(-c3ccncc3F)sc2c(=O)[nH]1 [Compound 13b, (S)-2-(1-aminopropyl)-6-(3-fluoropyridin-4-yl)thieno[3,2-d]pyrimidin-4(3H)-one hydrochloride] |

The remaining lines, values behind:

| Structure (SMILES) | IC50 [1] [nM] | GI50 [2] [nM] |
| --- | --- | --- |
| CC(C)(N)c1nc2cc(-c3ccnc(F)c3)sc2c(=O)[nH]1 [Compound 39, 2-(2-aminopropan-2-yl)-6-(2-fluoropyridin-4-yl)thieno[3,2-d]pyrimidin-4(3H)-one hydrochloride] | 1000 to 10000 | 1000 to 10000 |
| CN[C@H](c1nc2cc(-c3ccnc(F)c3)sc2c(=O)[nH]1)C(C)C [Compound 36, (S)-6-(2-fluoropyridin-4-yl)-2-(2-methyl-1-(methylamino)propyl)thieno[3,2-d]pyrimidin-4(3H)-one hydrochloride] | – | 1000 to 10000 |
| CC(C)[C@H](N)c1nc2cc(-c3c[nH]cn3)sc2c(=O)[nH]1 [Compound 45, (S)-2-(1-amino-2-methylpropyl)-6-(1H-imidazol-4-yl)thieno[3,2-d]pyrimidin-4(3H)-one hydrochloride] | > 10000 | > 10000 |
| C[C@H](N)c1nc2cc(-c3ccncc3F)sc2c(=O)[nH]1 [Compound 21, (S)-2-(1-aminoethyl)-6-(3-fluoropyridin-4-yl)thieno[3,2-d]pyrimidin-4(3H)-one hydrochloride] | 100 to 1000 | 100 to 1000 |
| CC(C)[C@H](N)c1nc2cc(-c3cn[nH]n3)sc2c(=O)[nH]1 [Compound 58, (S)-2-(1-amino-2-methylpropyl)-6-(2H-1,2,3-triazol-4-yl)thieno[3,2-d]pyrimidin-4(3H)-one hydrochloride] | 1000 to 10000 | 1000 to 10000 |
| CC(C)[C@H](N)c1nc2cc(N3CCNCC3)sc2c(=O)[nH]1 [Compound 67, (S)-2-(1-amino-2-methylpropyl)-6-(piperazin-1-yl)thieno[3,2-d]pyrimidin-4(3H)-one hydrochloride] | 1000 to 10000 | > 10000 |
| CC(C)[C@H](N)c1nc2cc(-c3cc[nH]c3)sc2c(=O)[nH]1 [Compound 65, (S)-2-(1-amino-2-methylpropyl)-6-(1H-pyrrol-3-yl)thieno[3,2-d]pyrimidin-4(3H)-one hydrochloride] | > 10000 | > 10000 |
| CC(C)[C@H](N)c1nc2cc(-c3ccnnc3)sc2c(=O)[nH]1 [Compound 49, (S)-2-(1-amino-2-methylpropyl)-6-(pyridazin-4-yl)thieno[3,2-d]pyrimidin-4(3H)-one hydrochloride] | 1000 to 10000 | 1000 to 10000 |
| CC(C)[C@@H](N)c1nc2cc(-c3ccncc3F)sc2c(=O)[nH]1 [Compound 29, (R)-2-(1-amino-2-methylpropyl)-6-(3-fluoropyridin-4-yl)thieno[3,2-d]pyrimidin-4(3H)-one hydrochloride] | 1000 to 10000 | 1000 to 10000 |
| N[C@H](c1nc2cc(-c3ccncc3F)sc2c(=O)[nH]1)C1CC1 [Compound 25, (S)-2-(amino(cyclopropyl)methyl)-6-(3-fluoropyridin-4-yl)thieno[3,2-d]pyrimidin-4(3H)-one hydrochloride] | < 100 | < 100 |
| CC(C)[C@H](N)c1nc2cc(-c3ccncn3)sc2c(=O)[nH]1 [Compound 53, (S)-2-(1-amino-2-methylpropyl)-6-(pyrimidin-4-yl)thieno[3,2-d]pyrimidin-4(3H)-one hydrochloride] | 100 to 1000 | 100 to 1000 |
